This is an account of results in ChEMBL document CHEMBL1938350, “Recent progress in biological activities of synthesized phenothiazines” (Eur J Med Chem, 2011).

In brackets after ≈: the same amount, converted by molar mass.

One data set has as its system Saccharomyces cerevisiae. Put plainly: Antifungal activity against Saccharomyces cerevisiae. The format is functional.
In data set [1] the test system is Trichophyton mentagrophytes. Put plainly: Antifungal activity against Trichophyton mentagrophytes. The data set is classed as functional.
The nature of data set [2]: Cytotoxicity against human leukemia cells. The data set is classed as functional. Particulars: Leukemia cell.
Data set [3] is described as follows: Cytotoxicity against human colon cancer cells. The format is functional. To be noted: Cancer cell lines, read-out: LC50 (the source's name).
For data set [4], the system named is WI-38. Put plainly: Antimitotic activity against human non-transformed WI38 cells assessed as cell viability at 5 uM after 1 day. The data set is classed as functional. To be noted: WI-38, 24 h, read-out: Activity.
The subject of data set [5] is WI-38. In words: Antimitotic activity against human non-transformed WI38 cells assessed as monoastral spindle formation at 5 uM after 1 day. The format is functional.
Data set [6] concerns the target T1, Kinesin-like protein KIF11 (Homo sapiens, UniProt P52732).
T1 sequence (P52732 whole entry): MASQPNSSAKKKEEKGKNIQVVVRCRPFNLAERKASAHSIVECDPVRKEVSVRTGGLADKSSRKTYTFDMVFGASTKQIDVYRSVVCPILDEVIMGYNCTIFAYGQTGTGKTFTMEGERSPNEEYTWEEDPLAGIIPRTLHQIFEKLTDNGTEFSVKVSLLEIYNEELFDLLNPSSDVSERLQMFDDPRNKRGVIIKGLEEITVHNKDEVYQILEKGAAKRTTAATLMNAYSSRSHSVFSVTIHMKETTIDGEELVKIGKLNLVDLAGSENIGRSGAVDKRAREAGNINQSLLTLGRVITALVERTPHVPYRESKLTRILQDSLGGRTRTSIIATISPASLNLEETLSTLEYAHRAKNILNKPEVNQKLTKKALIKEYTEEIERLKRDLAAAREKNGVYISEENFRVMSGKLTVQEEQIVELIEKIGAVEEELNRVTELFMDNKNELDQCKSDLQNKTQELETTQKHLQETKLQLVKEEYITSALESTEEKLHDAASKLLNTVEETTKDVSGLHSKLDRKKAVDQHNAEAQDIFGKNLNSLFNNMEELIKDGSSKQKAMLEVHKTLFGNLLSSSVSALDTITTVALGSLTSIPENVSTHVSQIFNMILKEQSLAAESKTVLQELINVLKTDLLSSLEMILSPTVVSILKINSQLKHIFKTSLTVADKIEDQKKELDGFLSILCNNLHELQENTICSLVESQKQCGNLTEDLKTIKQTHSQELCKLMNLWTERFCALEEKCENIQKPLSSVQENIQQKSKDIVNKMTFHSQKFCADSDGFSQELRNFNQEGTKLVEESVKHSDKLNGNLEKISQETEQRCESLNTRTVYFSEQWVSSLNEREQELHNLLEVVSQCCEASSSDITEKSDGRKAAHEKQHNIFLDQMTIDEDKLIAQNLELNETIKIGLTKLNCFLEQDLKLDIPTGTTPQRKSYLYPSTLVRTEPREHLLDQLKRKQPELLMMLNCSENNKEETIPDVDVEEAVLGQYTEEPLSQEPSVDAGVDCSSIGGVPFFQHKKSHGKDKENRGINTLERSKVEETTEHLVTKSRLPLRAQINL
In words: Inhibition of mitotic kinesin Eg5 in human transformed WI38VA13 cells assessed as inhibition of microtubule-activated ATPase activity. The data set is classed as cell-based.

In the next data set the test system is SK-MEL-5. Put plainly: Cytotoxicity against human SK-MEL-5 cells. The data set is classed as functional.
The next data set has as its system IGROV-1. In words: Cytotoxicity against human IGROV1 cells. The data set is classed as functional.
A short description of data set [7]: Potentiation of doxorubicin-induced cytotoxicity against human A2780/DX3 cells after 16 hrs. The format is functional.
The nature of data set [8]: Antiplatelet activity in rabbit platelets assessed as inhibition of collagen-induced platelet aggregation. The data set is classed as functional, cell-based, Oryctolagus cuniculus.
Another data set concerns Mus musculus. In words: Antiinflammatory activity in mouse assessed as inhibition of edema formation. The format is functional.
A short description of data set [9]: Antiplatelet activity in rabbit platelets assessed as inhibition of arachidonic acid-induced platelet aggregation. The format is functional, cell-based, Oryctolagus cuniculus.
Data set [10] can be described thus: Toxicity in rat. The data set is classed as organism-based. To be noted: in vivo, read-out: ALD50.
For a further data set, the species on record is Rattus norvegicus. In words: Anticonvulsant activity in rat assessed as inhibition of seizures. The data set is classed as functional.
Where [11] appears, read: Oryctolagus cuniculus, Platelet.

The MIC is the lowest concentration found to suppress growth. The low end stands for a more susceptible organism, the high end for a less susceptible organism. Take `NCCCCN1c2ccccc2Sc2ccc(C(F)(F)F)cc21`: the MIC against Saccharomyces cerevisiae came to 0.4 µg/mL (≈ 1.18 µM); in data set [1] it was 1.5 µg/mL (≈ 4.43 µM).
A word on the GI50: it is the concentration that inhibits growth by half. Higher therefore signals less potent growth inhibition. `O=C(NCCCl)NCCCCN1c2ccccc2Sc2ccc(Cl)cc21` came in with a GI50 in [2] of 1400 nM. Besides, the CC50 in data set [3] was found to be 5700 nM.
In general, IC50 refers to the concentration needed to halve the response being measured. Consider `OC(CNCCc1ccccc1)CN1c2ccccc2Sc2ccc(Cl)cc21` (stereo unspecified), for which, in the data set with WI-38 [4], the viability at 5 µM was 90%. Further, in the data set with WI-38 [5], the Activity is listed as 90%. The IC50 in data set [6] was found to be 1520 nM.
As to `O=C(NCCCl)NCCN1c2nc3ccccc3cc2Sc2cc3ccccc3nc21`, growth in the data set on SK-MEL-5 was halved (GI50) at 88 nM.
Consider `CCN(CC)CCN1c2nc3ccccc3cc2Sc2cc3ccccc3nc21`, for which, in the data set with IGROV-1, the GI50 came to 190 nM. In other words, the sub-micromolar range.
For `O=C(CSCC1CCCN2CCCCC12)N1c2ccccc2Sc2ccc(Cl)cc21` (stereo unspecified), the “fold change (FC)” value in data set [7] is reported as 3.96.
As for `O=C(CSCC1CCCN2CCCCC12)N1c2ccccc2Sc2ccc(C(F)(F)F)cc21` (stereo unspecified), the “fold change (FC)” value in data set [7] was 3.96.
On to `COc1ccc2c(c1)N(C(=O)CCSCC1CCCN3CCCCC13)c1ccccc1S2` (stereo unspecified), for which the “fold change (FC)” value in [7] turned out to be 3.96.
For the compound `CN(C)c1ccc(/C=N/NC(=O)N2c3ccccc3Sc3ccccc32)cc1`, the “inhibition (INH)” value in data set [8] is 100%; with Mus musculus it was 20.5%; in [9], 100%.
As for `O=C(O)c1ccc(/C=N/NC(=O)N2c3ccccc3Sc3ccccc32)cc1`, the “inhibition (INH)” value in [8] was 100%; in the data set with Mus musculus, 51%; in [9] it was 100%.
Regarding `O=C(N/N=C/c1ccccc1)N1c2ccccc2Sc2ccccc21`, the IC50 in [8] (setting [11]) and in [9] (setting [11]) was 2300 nM throughout.
Take `NNC(=O)N1c2ccccc2Sc2ccccc21`: the “inhibition (INH)” value in data set [8] and in data set [9] was 100% each time.
Regarding `O=C(N/N=C/C1CCCO1)N1c2ccccc2Sc2ccccc21` (stereo unspecified), the “inhibition (INH)” value in data set [8] and in data set [9] was 100% throughout.
Take `O=C(N/N=C/C1CCCS1)N1c2ccccc2Sc2ccccc21` (stereo unspecified): the “inhibition (INH)” value in [8] and in data set [9] was 100% in each case.
For the compound `O=C1NC(=O)C(CNc2nnc(CN3c4ccccc4Sc4ccccc43)o2)C(=O)N1`, in data set [10], the LD50 was 1000 mg/kg. Further, the “inhibition (INH)” value in the data set listed under Rattus norvegicus is 80%.
Regarding `O=C1NC(=S)NC(=O)C1CNc1nnc(CN2c3ccccc3Sc3ccccc32)s1`, the LD50 in [10] was determined as 1000 mg/kg. Also, the “inhibition (INH)” value in the data set listed under Rattus norvegicus amounted to 80%.
As to `O=C1N=C([O-])NC1(c1ccccc1)c1ccccc1.[Na+]` [PHENYTOIN SODIUM], in data set [10], the LD50 is 1000 mg/kg.
